Test results: ChEMBL document CHEMBL4765285, “Discovery of orally active indirubin-3'-oxime derivatives as potent type 1 FLT3 inhibitors for acute myeloid leukemia” (Eur J Med Chem, 2020)
Calls of active or inactive are those of the source. The rule behind the calls is not given here.

Assays:
[1] = Oral bioavailability in ICR mouse at 10 mg/kg measured up to 1440 mins by LC-MS/MS analysis; assay type: ADME, organism-based; details: in vivo
[2] = target: Receptor-type tyrosine-protein kinase FLT3 (Homo sapiens) (UniProt P36888); assay: Inhibition of human FLT3 at 100 nM in presence of ATP relative to control
[3] = target: Receptor-type tyrosine-protein kinase FLT3 (Homo sapiens, UniProt P36888, D835Y); assay: Inhibition of human FLT3 D835Y mutant in presence of ATP
[4] = target: BDNF/NT-3 growth factors receptor (Homo sapiens, UniProt Q16620); assay: Inhibition of human TrkB in presence of ATP
[5] = target: Platelet-derived growth factor receptor alpha (Homo sapiens) (UniProt P16234); assay: Inhibition of human PDGFRa at 100 nM in presence of ATP relative to control
[6] = target: Cyclin-dependent kinase 1 (Homo sapiens) (UniProt P06493); assay: Inhibition of human CDK1 at 100 nM in presence of ATP relative to control
[7] = target: Cyclin-dependent kinase 5 (Homo sapiens) (UniProt Q00535); assay: Inhibition of human CDK5 at 100 nM in presence of ATP relative to control
[8] = system: K562; assay: Antiproliferative activity against human K562 cells assessed as cell growth inhibition by WST assay; assay type: functional
[9] = target: Receptor-type tyrosine-protein kinase FLT3 (Homo sapiens) (UniProt P36888); assay: Inhibition of FLT3 in human MV4-11 cells assessed as reduction in STAT5 phosphorylation at 10 nM incubated for 4 hrs by Western blot analysis; assay type: cell-based
[10] = target: Receptor-type tyrosine-protein kinase FLT3 (Homo sapiens) (UniProt P36888); assay: Inhibition of FLT3 in human MV4-11 cells assessed as reduction in Erk1/2 phosphorylation at 0.01 to 1 uM incubated for 4 hrs by Western blot analysis; assay type: cell-based; details: dose 0.01-1 µM
[11] = Acute toxicity in ICR mouse assessed as median lethal dose; details: in vivo
[12] = Acute toxicity in ICR female mouse assessed as approximate lethal dose; details: in vivo
[13] = system: MOLM-14; assay: cells; details: Homo sapiens
Description: Antiproliferative activity against human MOLM14 cells harboring ITD mutant assessed as cell growth inhibition by MTT assay

[14] = system: MOLM-14; assay: cells; details: Homo sapiens; remark: listed apart in the source
Description: Antiproliferative activity against human MOLM14 cells harboring ITD/D835Y mutant assessed as cell growth inhibition by MTT assay

[15] = system: MDA-MB-231; assay: cells; details: Homo sapiens, MDA-MB-231, read-out: INH
Description: Antiproliferative activity against human MDA-MB-231 cells assessed as cell growth inhibition at 1 uM by WST assay relative to control

Platelet-derived growth factor receptor alpha (Homo sapiens), sequence (P16234 whole entry): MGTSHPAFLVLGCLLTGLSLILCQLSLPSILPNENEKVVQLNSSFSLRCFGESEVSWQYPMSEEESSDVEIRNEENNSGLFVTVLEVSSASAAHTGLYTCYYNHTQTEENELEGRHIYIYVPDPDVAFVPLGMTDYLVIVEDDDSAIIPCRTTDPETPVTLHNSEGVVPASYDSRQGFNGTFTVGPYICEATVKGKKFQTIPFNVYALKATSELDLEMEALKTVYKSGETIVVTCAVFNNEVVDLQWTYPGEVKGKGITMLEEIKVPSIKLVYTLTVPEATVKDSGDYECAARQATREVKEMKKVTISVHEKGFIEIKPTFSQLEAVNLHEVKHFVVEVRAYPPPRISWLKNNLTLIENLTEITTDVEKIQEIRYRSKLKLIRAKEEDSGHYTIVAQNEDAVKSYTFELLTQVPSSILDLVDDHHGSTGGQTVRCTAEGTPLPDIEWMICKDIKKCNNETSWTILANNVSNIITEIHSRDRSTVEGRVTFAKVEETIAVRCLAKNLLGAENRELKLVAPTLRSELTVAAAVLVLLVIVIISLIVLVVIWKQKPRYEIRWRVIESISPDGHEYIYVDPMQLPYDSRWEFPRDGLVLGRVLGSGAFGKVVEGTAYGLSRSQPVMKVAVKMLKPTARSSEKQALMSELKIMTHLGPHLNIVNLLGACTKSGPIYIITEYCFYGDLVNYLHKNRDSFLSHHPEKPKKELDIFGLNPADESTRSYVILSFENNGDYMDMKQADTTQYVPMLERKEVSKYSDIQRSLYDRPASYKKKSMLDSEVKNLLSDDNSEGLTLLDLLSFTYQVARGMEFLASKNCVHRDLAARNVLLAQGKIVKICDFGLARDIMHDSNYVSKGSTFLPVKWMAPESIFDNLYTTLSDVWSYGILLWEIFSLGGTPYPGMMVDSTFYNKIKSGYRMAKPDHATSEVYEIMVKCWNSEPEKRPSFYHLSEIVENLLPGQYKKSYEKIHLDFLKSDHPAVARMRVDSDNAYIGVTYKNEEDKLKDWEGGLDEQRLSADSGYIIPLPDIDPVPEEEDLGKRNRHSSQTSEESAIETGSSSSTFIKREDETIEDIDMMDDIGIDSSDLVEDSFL
Cyclin-dependent kinase 1 (Homo sapiens), sequence (P06493 whole entry, looked up): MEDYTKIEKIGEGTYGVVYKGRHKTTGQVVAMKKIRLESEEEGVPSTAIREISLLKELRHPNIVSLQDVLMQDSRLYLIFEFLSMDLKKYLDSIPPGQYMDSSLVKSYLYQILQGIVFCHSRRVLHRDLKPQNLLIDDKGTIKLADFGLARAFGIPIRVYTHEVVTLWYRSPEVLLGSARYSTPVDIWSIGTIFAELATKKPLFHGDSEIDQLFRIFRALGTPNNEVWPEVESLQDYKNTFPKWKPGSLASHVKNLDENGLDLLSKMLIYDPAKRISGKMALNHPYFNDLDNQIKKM
BDNF/NT-3 growth factors receptor, sequence (Q16620 whole entry): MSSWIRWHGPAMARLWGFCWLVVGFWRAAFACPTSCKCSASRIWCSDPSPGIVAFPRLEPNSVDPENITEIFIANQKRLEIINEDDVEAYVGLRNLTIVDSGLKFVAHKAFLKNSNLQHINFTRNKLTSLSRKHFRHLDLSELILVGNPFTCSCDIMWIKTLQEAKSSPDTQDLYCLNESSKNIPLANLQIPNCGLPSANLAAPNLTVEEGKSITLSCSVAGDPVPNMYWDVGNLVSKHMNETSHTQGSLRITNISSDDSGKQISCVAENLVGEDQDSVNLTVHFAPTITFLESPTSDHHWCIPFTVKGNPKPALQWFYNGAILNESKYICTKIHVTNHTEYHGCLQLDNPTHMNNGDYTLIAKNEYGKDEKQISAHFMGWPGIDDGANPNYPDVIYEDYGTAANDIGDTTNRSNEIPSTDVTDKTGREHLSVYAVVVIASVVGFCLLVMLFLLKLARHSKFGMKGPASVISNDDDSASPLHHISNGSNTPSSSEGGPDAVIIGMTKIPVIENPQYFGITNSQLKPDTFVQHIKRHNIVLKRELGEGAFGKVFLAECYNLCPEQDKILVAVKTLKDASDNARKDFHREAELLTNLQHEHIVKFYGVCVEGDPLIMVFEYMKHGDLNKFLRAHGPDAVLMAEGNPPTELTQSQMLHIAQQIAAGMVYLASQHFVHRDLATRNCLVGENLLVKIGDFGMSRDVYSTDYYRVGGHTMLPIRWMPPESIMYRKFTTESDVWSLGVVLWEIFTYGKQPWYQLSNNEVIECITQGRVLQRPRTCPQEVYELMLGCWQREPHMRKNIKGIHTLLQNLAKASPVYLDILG
Cyclin-dependent kinase 5 (Homo sapiens), sequence (Q00535 whole entry, looked up): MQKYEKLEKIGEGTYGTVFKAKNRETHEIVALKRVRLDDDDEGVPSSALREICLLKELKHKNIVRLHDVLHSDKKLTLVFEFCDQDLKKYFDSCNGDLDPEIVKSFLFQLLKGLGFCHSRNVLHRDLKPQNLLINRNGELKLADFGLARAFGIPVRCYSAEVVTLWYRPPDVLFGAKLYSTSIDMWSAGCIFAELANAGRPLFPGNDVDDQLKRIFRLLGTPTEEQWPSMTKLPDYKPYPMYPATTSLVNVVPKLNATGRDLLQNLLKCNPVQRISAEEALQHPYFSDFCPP

`Cl.O=C1Nc2ccc(F)cc2/C1=C1/Nc2ccccc2/C1=N\OCCN1CCNCC1` showed a bioavailability [1] of 42.6%, an inhibition [2] of 98% and an IC50 [3] of 0.32 nM. For the same compound, the IC50 [4] was 2.04 nM, the inhibition [5] was 5% and the inhibition [6] was 21%. It also gave an inhibition [7] of 54%, a GI50 [8] of 437 nM and an inhibition [9] of 100%. The inhibition [10] was “Active”, the LD50 [11] was 4950 mg/kg and the ALD50 [12] was 2000 mg/kg. For the same compound, the GI50 [13] was 1.85 nM, the GI50 [14] was 1.87 nM and the inhibition at 1 µM [15] was 8.95%.
